From US20160008339A1, “PSORALEN DERIVATIVES FOR PREVENTING OR TREATING HEART FAILURE OR CARDIAC HYPERTROPHY” (MAX-DELBRUCK-CENTRUM FUR MOLEKULARE MEDIZIN, priority 2012, published 2016)

Experiments:
[1] = tested on: primary neonatal rat cardiomyocytes; experiment: Beat frequency of neonatal cardiomyocytes by Fluo-4 calcium measurement; format: cell-based; conditions: Fluo-4, from 100 bpm
Description: The frequency of contraction could be determined in a similar manner with a calcium sensor (Fluo-4). In a laser-scanning microscope, Fluo-4 was excited with an argon laser (488 nm) and the emission signals were detected and collected at a wavelength of 505 nm. The fluorescence intensity represented the intracellular concentration of calcium ions. Usually, the line-scan mode was used for image recording, and the line-scan images were recorded with a speed of 1.54 or 1.92 ms per line along the longitudinal axis of the cell. After the sequential image recording, a two-dimensional image with 512×100 lines or 512×2000 lines was generated and saved for later analysis.
Additional calcium measurements were performed. […] The fluorescence dye Fluo-4 was added after 20 min. Fluo-4 is a calcium sensor, which is used for investigating the calcium increase in cells. In cardiomyocytes the dye serves for examining the contractility. During contraction and relaxation, the calcium concentrations differ in the cytosol of cardiomyocytes. The fluorescence intensity of Fluo-4 increases with an increasing calcium concentration, and a decreasing calcium concentration will cause reduced fluorescence intensity. A frequency could be calculated from the fluo-4 fluorescence oscillation by a time depended analysis, wherein the fluorescence was measured over a period of two hours. The ground state at the moment before application (black), the period 10 to 30 sec after application (dark grey) and 70 to 110 sec after application (light grey) were evaluated (FIG. 5). Application refers to the adding of PE or adrenaline. […] The statistical analysis was performed according to the method of analysis of variance (ANOVA).

[2] = tested on: primary neonatal rat cardiomyocytes; experiment: Beat rate of neonatal cardiomyocytes counted by light microscope; format: cell-based; conditions: PE 100 μmol/L for six hours, from 100 bpm
Description: For cultivation of primary neonatal rat cardiomyocytes, hearts of two to three days old rats were obtained and quickly stored on ice in ADS buffer (116.4 mM NaCl, 5.4 mM KC, 5.6 mM dextrose, 10.9 mM NaH2PO4, 405.7 μmol/L MgSO4, 20 mM Hepes, pH 7.3). Under sterile conditions, the hearts were cleaned from blood and vessels, cut into small pieces and transferred into falcon tubes. The ADS buffer was exchanged against an enzyme solution (see table below). Within four cycles each with five ml enzyme solution and an enzyme mix comprising collagenase and pancreatin, isolated cells were released from the tissue (12 min at 37° C. in a water bath with approx. 220 rpm).
The supernatant with the isolated cells was collected, transferred in fetal calf serum (FCS, 2.5 ml on ice) and subsequently centrifugated in FCS (100 g for 3 min at 4° C.). The supernatant of the centrifugation was discarded and the pellet was resuspended in 5 ml cold plating medium. After an additional centrifugation, the pellet was resuspended in 15 ml medium, transferred into a dish and incubated for two hours at 37° C. to allow the settling of the fibroblasts. The cardiomyocytes in the supernatant were counted with a Scepter Handheld Automated Cell Counter and transferred in dishes coated with gelatine. On the following day the medium was changed.
The neonatal cardiomyocytes were seeded in 6-well plates with 1.5×10^6 cell per well. The stimulation with 100 μmol/L phenylephrine (PE) was performed for six or twenty four hours at 37° C. Untreated cells served as control. The effect of compound 31413 on the α-adrenergic stimulation of the cardiomyocytes was determined after incubation with the compound for three hours. To do this, the contraction of the cells was counted within a minute and different conditions were compared.
Isolated neonatal cardiomyocytes were used to investigate the relation between AKAP-Lbc induced RhoA activation and the contractility of the heart. After a chronic stimulation of the α1-adreno receptors (AR) with the specific agonist PE for six hours, the beats of the cardiomyocytes were counted over a period of 15 s and a beat rate per minute (bpm) was calculated. An increase of the beat rate of the cardiomyocytes from 100 bpm to 160 beats per minute could be observed. […] The beat rate of neonatal cardiomyocytes was counted with help of a light microscope.

[3] = tested on: primary neonatal cardiomyocytes (α-sceletal muscle actin mRNA); experiment: Hypertrophy marker α-actin 1 mRNA by quantitative real-time PCR; format: cell-based, rat; conditions: PE 100 μmol/L, 24 hours
Description: Primary neonatal cardiomyocytes were prepared as described above. The cardiomyocytes were stimulated for 24 or 48 hours with 100 μmol/L phenylephrin (PE) or 10 μmol/L isoproterenol (ISO) in absence or presence of 10 μmol/L or 50 μmol/L of compound 31413.
After 24 hours or 48 hour of stimulation, the medium was removed, and every well was washed with 2 ml phosphate buffered saline and fixed with 200 μl TRIzol. The cells were removed from each well and transferred into a 1.5 ml Eppendorf tube, respectively.
For cell breakdown, 40 μl chloroform was added to each Eppendorf tube. The broken cells were centrifuged for 15 min at 1400 g and 4° C. The supernatant containing RNA/DNA was taken, mixed with 100 μl isopropanol and centrifugated for 20 min at 1500 g and 4° C. The supernatant was discarded and the pellet was resuspended in 500 μL ethanol. The RNA from the pellet was purified by chromatography. The concentration of the RNA was determined by NANODROP.
The quantification of the hypertrophy marker α-sceletal muscle actin (α-actin 1) mRNA was performed by quantitative real-time PCR. First, the RNA was transcribed to a cDNA with a SuperScript™III First-Strand Synthesis SuperMix (Invitrogen) and random hexamer primers. The cDNA was amplified in a PCR reaction in an Applied Biosystem StepOne™ Real-Time PCR System. Glycerinealdehydephosphate dehydrogenase and NTC (no template control) was used as controls. All samples were triplicates. The following primers have been used: […]

3T3 mouse fibroblasts = experiment: LPA-induced stress fibre formation, TRITC-phalloidin fluorescence; format: cell-based; conditions: 3T3 cells, LPA alone (DMSO)
From the text: For the initial analysis, 3T3 cells were used to evaluate the cellular effects of the compounds of the present invention. In these cells changes in the cytoskeleton caused by GTPase activation are well observable, because the cells have a G protein coupled receptor for LPA. A stimulation of 3T3 cells with LPA leads to an activation of RhoA and thereby to the formation of fibrillar actin filaments (F-actin, stress fibres). The participation of AKAP-Lbc as an exchange factor for RhoA within the signal transduction via a G protein of the G−12/13 family was shown.
3T3 mouse fibroblasts were seeded on 30 mm cover slips (in 6 well plates) in a cell density of 2×10^5 cells/well. […]
Following that, the cells were washed with phosphate buffer (Dulbecco's Phosphate-Buffered Saline++) and fixed in 2.5% paraformaldehyde in sodium cacodylate buffer (100 mmol/L sodium cacodylate, 100 mmol/L sucrose, pH 7.4) for 15 min. […] For the microscopic investigations, images were taken with two different fluorescence channels. […]
Without LPA stimulation no stress fibres could be identified after addition of DMSO instead of the compounds of the invention (FIG. 2A, a). […] The quantification of the stress fibre formation were performed with the software package ImageJ by the determination of the overall fluorescence of the TRITC-phalloidin. […]

[4] = biological target: T1, AKAP-Lbc (guanine nucleotide exchange on RhoA) (Homo sapiens, UniProt Q12802); experiment: RhoGEF nucleotide exchange assay (GDP against mGTP on RhoA); conditions: IC50 (fifty percent inhibition of nucleotide exchange), 15 min
T1 sequence (Q12802 1994-2333): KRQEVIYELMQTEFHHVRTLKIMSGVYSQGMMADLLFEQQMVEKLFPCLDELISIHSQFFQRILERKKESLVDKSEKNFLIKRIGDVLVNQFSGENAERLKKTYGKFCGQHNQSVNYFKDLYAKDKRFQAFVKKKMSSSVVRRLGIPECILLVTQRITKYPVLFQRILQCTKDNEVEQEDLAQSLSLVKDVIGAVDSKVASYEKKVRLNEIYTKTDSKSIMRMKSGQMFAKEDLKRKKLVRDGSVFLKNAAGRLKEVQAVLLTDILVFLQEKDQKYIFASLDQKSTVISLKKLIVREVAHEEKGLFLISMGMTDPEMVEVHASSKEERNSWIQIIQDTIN
Description: Following the protocol of the RhoGEF exchange assay Biochem Kit, a nucleotide exchange experiment for AKAP-Lbc and RhoA was established. The fluorescence labelled nucleotide analogues 2′(3′)-O—(N-methylanthraniloyl)-guanosine diphosphate and 2′(3′)-O—(N-methylanthraniloyl)-guanosine triphosphate, hereinafter referred to mGDP and mGTP, were used for tracing the nucleotide exchange.
25 μl depletion buffer (100 mmol/L sodium phosphate, pH 7.4, 5 mmol/L EDTA, 200 mmol/L ammonium sulfate) with an excess of mGDP (5 mmol/L) were added to 200 μg recombinant his6-RhoA (25 μl) and incubated one hour at room temperature. Then, magnesium chloride (MgCl2) was added to a final concentration of 10 mmol/L.
By centrifugation with Vivaspin® 500 concentrator vials (MWCO 5 kDa, 10 min, 10000 rpm) and buffer (100 mmol/L sodium phosphate, pH 7.4, 100 mmol/L NaCl, protease inhibitor [cOmplete, Mini, EDTA-free protease inhibitor cocktaile]) RhoA-mGDP was washed twice and reduced to 100 μl. 1 μmol/L RhoA-mGDP and 0.5 μmol/L AKAP-Lbc DHPH in nucleotide exchange buffer (40 mmol/L Tris pH 7.5; 100 mmol/L NaCl; 20 mmol/L MgCl2, 100 μg/ml BSA) were used for the nucleotide exchange. The fluorescence measurements were performed in a micro plate reader (TECAN Safire) over a period of 15 min, whereby the fluorophore of mGDP was excited at 360 nm and the resulting fluorescence signal was determined at 440 nm.
At a concentration relation of 2 μmol/L protein and 1 μmol/L mGTP, an ideal fluorescence signal-to-noise-ratio was found in the nucleotide exchange buffer (40 mM Tris pH 7.5, 100 mmol/L NaCl, 20 mmol/L MgCl2, 100 μg/ml BSA). The fluorescence signal for mGTP was measured analogous to mGDP (λexc=360 nm; λem=440 nm) in a micro plate reader (TECAN Safire) over a period of 15 min. The experiment was performed in a 384-well plate.

Row | Compound | frequency after stimulation [1] [bpm] | IC50 [4] [µM] | also measured
1 | CNC[C@H](O)c1cccc(O)c1 [PE, phenylephrine, reference compound] | 150 |  | beat rate of the cardiomyocytes after stimulation [2]: 160 beats per minute; increase in relative amount of α-actin 1 mRNA [3]: threefold increase
2 | lysophosphatide acid [LPA, reference compound] |  |  | formation of stress fibres after stimulation (3T3 mouse fibroblasts): clear formation of stress fibres
3 | CCCCc1cc(=O)oc2cc3occ(-c4ccc(OC)cc4)c3cc12 [Compound 31892, 5-butyl-3-(4-methoxyphenyl)furo[3,2-g]chromen-7-one] |  | 78.9 | 
4 | CCCc1cc(=O)oc2cc3occ(-c4ccc(OC)cc4)c3cc12 [Compound 31864, 3-(4-methoxyphenyl)-5-propyl-furo[3,2-g]chromen-7-one] |  | 39.9 | 
5 | CNCC(O)c1ccc(O)c(O)c1 (stereo not shown) [adrenaline, reference compound] | 200 |  | 
